# Experimental data reported in patent publication US7812022B2 (GlaxoSmithKline LLC, priority 2004, dated 2010).
# pIC50: −log10 of the molar value. Where two headings read alike, the source gives them in different places.
# Columns and labels:
# [1] = system: BT474 and HN5 tumor cell lines; experiment: Methylene blue growth inhibition assay (cellular Method A); type: cell-based, Human; settings: 3 days, read-out: Activity (Method): growth inhibition IC50 class
# Description: Human breast (BT474) and head and neck (HN5) were cultured in low glucose DMEM (Life Technologies 12320-032) containing 10% fetal bovine serum (FBS). Human colon tumor cells (Colo205) were cultured in DMEM (Invitrogen, 10564) containing 10% FBS. The SV40 transformed human mammary epithelial cell line HB4a was transfected with either human H-ras cDNA (HB4a r4.2) or the human c-ErbB2 cDNA (HB4a c5.2). The HB4a clones were cultured in RPMI containing 10% FBS, insulin (5 g/mL), hydrocortisone (5 g/mL), supplemented with the selection agent hygromycin B (50 g/mL). All lines were grown in a humidified incubator at 37° C. in 95% air, 5% CO2. Cells were harvested using trypsin/EDTA, counted using a haemocytometer, and plated in 100 microliters of the appropriate media, at the following densities, in a 96-well tissue culture plate (Falcon 3075): BT474 10,000 cells/well, HN5 3,000 cells/well. The next day, compounds were diluted in DMEM containing […] gentamicin, at twice the final required concentration, from 10 mM stock solutions in DMSO. 100 microliters/well of these dilutions were added to the 100 microliters of media currently on the cell plates. Medium containing 0.6% DMSO was added to control wells. Compounds diluted in DMEM were added to all cell lines. The final concentration of DMSO in all wells was 0.3%. Cells were returned to the incubator (37° C., 10% CO2) for 3 days. Medium was then removed by aspiration. Cell biomass was estimated by staining cells with 90 microliters per well methylene blue (Sigma M9140, 0.5% in 1:1 ethanol:water), and incubation at rt for at least 30 minutes. Stain was removed, and the plates rinsed by immersion in deionized water and air-dried. To release stain from the cells 100 microliters of solubilization solution was added (1% N-lauroyl sarcosine, Sodium salt, Sigma L5125, in PBS), and plates were shaken gently for about 30 minutes. Optical density at 620 nm was measured on a microplate reader. Percent inhibition of cell growth was calculated relative to vehicle treated control wells. Concentration of compound that inhibits 50% of control cell growth (IC50) was interpolated using nonlinear regression (Levenberg-Marquardt) and the equation, y=Vmax*(1−(x/(K+x)))+Y2, where “K” was equal to the IC50. Method B: Celltiter Glo® Growth Inhibition Assays
# [2] = biological target: T1, ErbB2 or EGFR; experiment: ErbB family substrate phosphorylation enzyme assay (HTRF), Method A or Method B; type: biochemical
# T1 construct: enzymes purified from a baculovirus expression system; Reagent production was conducted essentially as described in Brignola, P. S., et al, (2002) J. Biol. Chem. 277(2): 1576-1585
# Description: Compounds of the present invention were tested for EGFR, ErbB-2, and ErbB-4 protein tyrosine kinase inhibitory activity in substrate phosphorylation assays using enzymes purified from a baculovirus expression system. Reagent production was conducted essentially as described in Brignola, P. S., et al, (2002) J. Biol. Chem. 277(2): 1576-1585.
# The method measures the ability of the isolated enzyme to catalyse the transfer of the gamma-phosphate from ATP onto the tyrosine residue of a biotinylated synthetic peptide referenced “Peptide C” in Brignola, P. S., et al, (2002) J. Biol. Chem. 277(2):1576-1585. The extent of tyrosine phosphorylation was measured using an anti-phosphotyrosine antibody, and quantified by homogenous time-resolved fluorescence (HTRF).
# Reactions were performed in black 384-well polystyrene flat-bottom plates in a final volume of 20 ul. Assays were performed by adding 10 μl of each of the following solutions, substrate Mix and enzyme mix: The Substrate mix contained 100 mM 3-[N-morpholino]propanesulfonic acid (MOPS) (pH 7.5), 2 mM MnCl2, 20 μM ATP, 0.01% Tween-20, 0.1 mg/mL (BSA), 0.8 uM peptide substrate, and 1 mM dithiothreitol. The enzyme mix contained 100 mM MOPS (pH7.5); 0.01% Tween-20; 0.1 mg/mL BSA, and either 0.8 nM EGFR, 10 nM ErbB2, or 1 nM ErbB4
# During the course of these studies, two separate methods have been used to measure the potency of compounds. In Method A, the substrate mix was added to the compound plates first, then the reaction was started by adding the enzyme mix. In Method B, the enzyme mix was added to the compound plates and the plates were incubated at 20° C. for 1 hour. The reactions were then started by adding the substrate mix.
# After initiating the reaction with either method describe above, the reactions were allowed to proceed for 90 minutes at 20° C. The reactions were then terminated by the addition of 20 μl 100 mM EDTA to each well. 40 μl/well of HTRF detection mix were added to the assay plates. The final concentrations of the detection reagents were: 100 mM HEPES (pH7.5), 0.1 mg/mL BSA, 15 nM streptavidin-labeled allophycocyanin (PerkinElmer), and 1 nM europium-labeled anti-phosphotyrosine antibody (PerkinElmer). Assay plates were left unsealed and were counted in a Wallac Multilabel Counter 1420 (PerkinElmer).
# Compounds under analysis were dissolved in Me2SO to 1.0 mM and serially diluted 1 to 3 with Me2SO through twelve dilutions. 1 μl of each concentration was transferred to the corresponding well of an assay plate. This creates a final compound concentration range from 0.00027 to 47.6 μM.
# The data for dose responses were plotted as % Inhibition calculated with the data reduction formula 100*(1−(U1−C2)/(C1−C2)) versus concentration of compound where U is the unknown value, C1 is the average control value obtained for 4.76% DMSO, and C2 is the average control value obtained for 0.035 M EDTA. Data were fitted with a curve described by: y=((Vmax*x)/(K+x))+Y^2 where Vmax is the upper asymptote, Y2 is the Y intercept, and K is the IC50. The results for each compound were recorded as pIC50s, calculated as follows: pIC50=−Log 10(K)
# [3] = Method A: substrate mix added first, reaction started with enzyme mix
Compound,"pIC50 ([1]; Homo sapiens, BT-474, 72 h)","Activity (Method): pIC50 class against ErbB2 or EGFR [2, 3]",further results
"CC(c1cccc(Nc2nccc(-c3c(-c4cccc(NC(=O)c5c(F)cccc5F)c4)nn4ccccc34)n2)c1)S(C)(=O)=O (single isomer, unassigned) [Example 123, 2,6-Difluoro-N-(3-{3-[2-({3-[1-(methylsulfonyl)ethyl]-phenyl}amino)-4-pyrimidinyl]pyrazolo[1,5-a]pyridin-2-yl}phenyl)benzamide]",> 7.00,,
"CC(c1cccc(Nc2nccc(-c3c(-c4cccc(NC(=O)c5c(F)cccc5F)c4)nn4ccccc34)n2)c1)S(C)(=O)=O (single isomer, unassigned) [Example 124, 2,6-Difluoro-N-(3-{3-[2-({3-[1-(methylsulfonyl)ethyl]-phenyl}amino)-4-pyrimidinyl]pyrazolo[1,5-a]pyridin-2-yl}phenyl)benzamide]",,,pIC50 [1]: > 7.00
"Cn1cccc1C(=O)Nc1cccc(-c2nn3ccccc3c2-c2ccnc(Nc3ccc4c(c3)OCCO4)n2)c1 [Example 3, 1-Methyl-1H-pyrrole-2-carboxylic acid (3-{3-[2-(2,3-dihydro-benzo[1,4]dioxin-6-ylamino)-pyrimidin-4-yl]-pyrazolo[1,5-a]pyridin-2-yl}-phenyl)-amide]",6.00 to 7.00,+++ (A) (at least one pIC50 measurement of greater than 7 against either ErbB2 or EGFR),
"O=C(Nc1cccc(-c2nn3ccccc3c2-c2ccnc(Nc3ccc4c(c3)OCCO4)n2)c1)c1ccccc1Cl [Example 6, 2-Chloro-N-(3-{3-[2-(2,3-dihydro-benzo[1,4]dioxin-6-ylamino)-pyrimidin-4-yl]-pyrazolo[1,5-a]pyridin-2-yl}-phenyl)-benzamide]",> 7.00,+++ (A) (at least one pIC50 measurement of greater than 7 against either ErbB2 or EGFR),
"S=C(Nc1cccc(-c2nn3ccccc3c2-c2ccnc(Nc3ccc4c(c3)OCCO4)n2)c1)c1ccccc1 [Example 7, N-(3-{3-[2-(2,3-Dihydro-benzo[1,4]dioxin-6-ylamino)-pyrimidin-4-yl]-pyrazolo[1,5-a]pyridin-2-yl}-phenyl)-thiobenzamide]",6.00 to 7.00,++ (A) (at least one pIC50 measurement greater than 6 against either ErbB2 or EGFR but no measurement greater than pIC50 of 7),
"O=C(Nc1cccc(-c2nn3ccccc3c2-c2ccnc(Nc3cccc(F)c3)n2)c1)c1ccccn1 [Example 22, Pyridine-2-carboxylic acid (3-{3-[2-(3-fluoro-phenylamino)-pyrimidin-4-yl]-pyrazolo[1,5-a]pyridin-2-yl}-phenyl)-amide]",6.00 to 7.00,,
"Cc1ccc2c(-c3ccnc(Nc4cccc(F)c4)n3)c(-c3cccc(NC(=O)c4cc(F)ccc4F)c3)nn2c1 [Example 40, 2,5-Difluoro-N-[3-(3-{2-[(3-fluorophenyl)amino]-4-pyrimidinyl}-6-methylpyrazolo[1,5-a]pyridin-2-yl)phenyl]benzamide]",6.00 to 7.00,,
"O=C(Nc1cccc(-c2nn3ccccc3c2-c2ccnc(Nc3cccc(F)c3)n2)c1)c1ccccn1 [Example 76, N-[3-(3-{2-[(3-fluorophenyl)amino]-4-pyrimidinyl}pyrazolo[1,5-a]pyridin-2-yl)phenyl]-2-pyridinecarboxamide]",,,Activity (Method): pIC50 class against ErbB2 or EGFR ([2]; method not given): +++ (at least one pIC50 measurement of greater than 7 against either ErbB2 or EGFR)
"Cc1nc2ccc(Nc3nccc(-c4c(-c5cccc(NC(=O)c6c(F)cccc6F)c5)nn5ccccc45)n3)cc2nc1C [Example 97, N-[3-(3-{2-[(2,3-Dimethyl-6-quinoxalinyl)amino]-4-pyrimidinyl}pyrazolo[1,5-a]pyridin-2-yl)phenyl]-2,6-difluorobenzamide]",6.00 to 7.00,,
"O=C(Cc1ccccc1)c1ccc(Nc2nccc(-c3c(-c4cccc(NC(=O)c5c(F)cccc5F)c4)nn4ccccc34)n2)cc1 [Example 102, 2,6-Difluoro-N-{3-[3-(2-{[4-(phenylacetyl)phenyl]-amino}-4-pyrimidinyl)pyrazolo[1,5-a]pyridin-2-yl]-phenyl}benzamide]",6.00 to 7.00,,
